{"source": "patent EP2235030B1", "about": "“COMPOUND OF THE DISACCHARIDE TYPE COMPOSITION COMPRISING AND METHOD FOR PRODUCING SUCH A COMPOUND” (Université de Picardie Jules Verne, priority 2007, dated 2009)", "key": {"[1]": {"tested_on": "chitinases d'insectes et de champignons", "conditions": "competitive inhibition; cited from earlier work"}, "Myzus persicae (Sulzer)": {"tested_on": "Myzus persicae (Sulzer)", "assay": "Aphid neonates reared on artificial diet supplemented with DPS2: demographic parameters", "assay_type": "in vivo", "conditions": "for Temps de doublement de la population / Fécondité journalière / Période préreproductive / rm: mean ± SD; for rm: intrinsic rate of population increase", "protocol": "(§1) Deux espèces de pucerons Myzus persicae (Sulzer) et Macrosiphum euphorbiae (Thomas) ont été utilisées pour cette étude. Des adultes ont été isolés et placés dans des cages de PVC sur milieu artificiel pendant une journée afin de synchroniser la descendance. Les néonates, âgés de moins de 24 h sont alors placés sur milieu artificiel contenant des concentrations variant de 0 à 100 µg.mL^-1 du composé DPS2, synthétisé précédemment, selon un protocole décrit par Saguez J, Dubois F, Vincent C, Laberche JC, Sangwan-Norreel BS et Giordanengo P (2006), dans l'article intitulé « Differential aphicidal effects of chitinase inhibitors on the polyphagous homopteran Myzus pensicae (Sulzer) » et publié dans Pest Manag Sci 62: 1150-1154. Plusieurs paramètres démographiques sont relevés quotidiennement afin de déterminer la durée du développement larvaire, la mortalité larvaire et la fécondité et de calculer un paramètre synthétique, le rm (taux intrinsèque d'accroissement des populations) et le temps de doublement des populations. Un minimum de 50 pucerons de chaque espèce est testé par traitement et les individus sont suivis quotidiennement. La taille des pucerons a été mesurée une semaine après le début de l'expérience, sous loupe binoculaire à l'aide d'un oculaire biométrique. Les effets du DPS2 sur la survie larvaire sont analysés par un test du χ^2 de Pearson. Une analyse de variance (ANOVA monofactorielle) a été réalisée avec le logiciel Statistica 5.5 (StatSoft®, Tulsa, Oklahoma, USA) pour tester les effets du DPS2 sur les paramètres démographiques des aphides. Les paramètres significativement altérés sont ensuite analysés par un test de Fisher (PLSD) au seuil de significativité P <0,05.\n(§2) Dans les tableaux I, II et III qui suivent, les résultats sont exprimés sous la forme : moyenne ± écart-type. L'effet significatif (*) été testé par une analyse de variance monofactorielle (F) à P<0.05. Les valeurs de même rang suivies par une même lettre indiquent qu'il n'existe pas de différence significative d'après le test du PLSD de Fisher (P<0.05)."}, "[2]": {"tested_on": "Macrosiphum euphorbiae (Thomas)", "assay": "Aphid neonates reared on artificial diet supplemented with DPS2: demographic parameters and body size", "assay_type": "in vivo", "conditions": "for rm: intrinsic rate of population increase", "protocol": "as §1, §2"}, "[3]": {"tested_on": "pucerons M. persicae et M. euphorbiae", "assay": "Aphid artificial diet test, statements made for both aphid species without distinction", "assay_type": "in vivo, Myzus persicae, Macrosiphum euphorbiae", "protocol": "as §1"}, "[4]": {"conditions": "DPS2 1 µg.mL^-1 in artificial diet"}, "[5]": {"conditions": "DPS2 10 µg.mL^-1 in artificial diet"}, "[6]": {"conditions": "DPS2 50 µg.mL^-1 in artificial diet"}, "[7]": {"conditions": "DPS2 100 µg.mL^-1 in artificial diet"}, "[8]": {"conditions": "DPS2 1 µg.mL^-1 in artificial diet, mean ± SD"}, "[9]": {"conditions": "DPS2 10 µg.mL^-1 in artificial diet, mean ± SD"}, "[10]": {"conditions": "DPS2 50 µg.mL^-1 in artificial diet, mean ± SD"}, "[11]": {"conditions": "DPS2 100 µg.mL^-1 in artificial diet, mean ± SD"}}, "note": "Marks after values point to notes of the source that are not given here.", "data": [{"molecule": "allosamidine", "values": [{"measurement": "activité inhibitrice contre les chitinases", "setting": "[1]", "result": "puissante activité inhibitrice"}]}, {"molecule": "CCCOC1O[C@H](COS(=O)(=O)O)[C@@H](O[C@@H]2O[C@H](CO)[C@@H](O)[C@H](O)[C@H]2NC(C)=O)[C@H](O)[C@H]1OC(C)=O", "note": "(stereo partly shown) [DPS2]", "values": [{"measurement": "Temps de doublement de la population", "setting": "Myzus persicae (Sulzer); DPS2 1 µg.mL^-1", "result": "5,6 ± 1,8^b jours"}, {"measurement": "Fécondité journalière", "setting": "Myzus persicae (Sulzer); [4]", "result": "0,99 ± 0,27^a larves.femelles-1.jour-1"}, {"measurement": "Période préreproductive", "setting": "Myzus persicae (Sulzer); [4]", "result": "11,6 ± 1,9^b jours"}, {"measurement": "Temps de doublement de la population", "setting": "Myzus persicae (Sulzer); DPS2 10 µg.mL^-1", "result": "5,4 ± 1,2^b b jours"}, {"measurement": "Fécondité journalière", "setting": "Myzus persicae (Sulzer); [5]", "result": "0,91 ± 0,28^b larves.femelles-1.jour-1"}, {"measurement": "Période préreproductive", "setting": "Myzus persicae (Sulzer); [5]", "result": "10,9 ± 1,5^a jours"}, {"measurement": "Temps de doublement de la population", "setting": "Myzus persicae (Sulzer); DPS2 50 µg.mL^-1", "result": "5,9 ± 1,6^b b jours"}, {"measurement": "Fécondité journalière", "setting": "Myzus persicae (Sulzer); [6]", "result": "0,74 ± 0,24^bc larves.femelles-1.jour-1"}, {"measurement": "Période préreproductive", "setting": "Myzus persicae (Sulzer); [6]", "result": "11,1 ± 1,4^a jours"}, {"measurement": "Temps de doublement de la population", "setting": "Myzus persicae (Sulzer); DPS2 100 µg.mL^-1", "result": "6,5 ± 2,0^a jours"}, {"measurement": "Fécondité journalière", "setting": "Myzus persicae (Sulzer); [7]", "result": "0,65 ± 0,11^bc larves.femelles-1.jour-1"}, {"measurement": "Période préreproductive", "setting": "Myzus persicae (Sulzer); [7]", "result": "11,9 ± 1,7^b jours"}, {"measurement": "durée de la période pré-reproductive (augmentation)", "setting": "Myzus persicae (Sulzer); increase versus control diet", "result": "augmentée d'environ une journée"}, {"measurement": "rm", "setting": "Myzus persicae (Sulzer); DPS2 1 µg.mL^-1", "result": "0,13 ± 0,04^b femelles.femelles^-1 .jours^-1"}, {"measurement": "rm", "setting": "Myzus persicae (Sulzer); DPS2 10 µg.mL^-1", "result": "0,13 ± 0,03^b femelles.femelles^-1 .jours^-1"}, {"measurement": "rm", "setting": "Myzus persicae (Sulzer); DPS2 50 µg.mL^-1", "result": "0,12 ± 0,03^bc femelles.femelles^-1 .jours^-1"}, {"measurement": "rm", "setting": "Myzus persicae (Sulzer); DPS2 100 µg.mL^-1", "result": "0,11 ± 0,03^c femelles.femelles^-1 .jours^-1"}, {"measurement": "taille des pucerons", "setting": "[2]; DPS2 1 µg.mL-1 in artificial diet, after 7 days, mean ± SD", "result": "2,2 ± 0,3^a mm"}, {"measurement": "Temps de doublement de la population", "setting": "[2]; DPS2 1 µg.mL^-1, mean ± SD", "result": "4,7 ± 1,0^ab jours"}, {"measurement": "Fécondité journalière", "setting": "[2]; [8]", "result": "1,16 ± 0,36^a larves.femelles-1 .jour-1"}, {"measurement": "Période préreproductive", "setting": "[2]; [8]", "result": "11,3 ± 2,1^a jours"}, {"measurement": "taille des pucerons", "setting": "[2]; DPS2 10 µg.mL-1 in artificial diet, after 7 days, mean ± SD", "result": "2,1 ± 0,3^b mm"}, {"measurement": "Temps de doublement de la population", "setting": "[2]; DPS2 10 µg.mL^-1, mean ± SD", "result": "5,5 ± 1,3^b jours"}, {"measurement": "Fécondité journalière", "setting": "[2]; [9]", "result": "1,06 ± 0,34^a larves.femelles-1 .jour-1"}, {"measurement": "Période préreproductive", "setting": "[2]; [9]", "result": "12,1 ± 1,6^a jours"}, {"measurement": "taille des pucerons", "setting": "[2]; DPS2 50 µg.mL-1 in artificial diet, after 7 days, mean ± SD", "result": "1,8 ± 0,2^bc mm"}, {"measurement": "Temps de doublement de la population", "setting": "[2]; DPS2 50 µg.mL^-1, mean ± SD", "result": "8,1 ± 1,6^c jours"}, {"measurement": "Fécondité journalière", "setting": "[2]; [10]", "result": "0,81 ± 0,20^b larves.femelles-1 .jour-1"}, {"measurement": "Période préreproductive", "setting": "[2]; [10]", "result": "13,4 ± 1,2^b jours"}, {"measurement": "taille des pucerons", "setting": "[2]; DPS2 100 µg.mL-1 in artificial diet, after 7 days, mean ± SD", "result": "1,7 ± 0,2^c mm"}, {"measurement": "Temps de doublement de la population", "setting": "[2]; DPS2 100 µg.mL^-1, mean ± SD", "result": "6,5 ± 2,0^c jours"}, {"measurement": "Fécondité journalière", "setting": "[2]; [11]", "result": "0,73 ± 0,22^b larves.femelles-1 .jour-1"}, {"measurement": "Période préreproductive", "setting": "[2]; [11]", "result": "13,5 ± 1,6^b jours"}, {"measurement": "mortality at 50 µg/mL", "setting": "[2]; Macrosiphum euphorbiae, 50 µg.mL^-1, read-out: mortalité larvaire", "result": 49, "unit": "%"}, {"measurement": "mortality at 100 µg/mL", "setting": "[2]; Macrosiphum euphorbiae, 100 µg.mL^-1, read-out: mortalité larvaire", "result": 53, "unit": "%"}, {"measurement": "taille des pucerons", "setting": "[2]; from 10 µg.mL^-1 upwards", "result": "réduite"}, {"measurement": "augmentation du temps de doublement des populations", "setting": "[2]; highest concentrations, 'près de'", "result": "~4", "unit": "jours"}, {"measurement": "durée de la période pré-reproductive (augmentation)", "setting": "[2]; increase versus control diet, at the highest concentrations", "result": "deux jours"}, {"measurement": "rm", "setting": "[2]; DPS2 1 µg.mL^-1, mean ± SD", "result": "0,16 ± 0,04^b femelles.femelles^-1.jours^-1"}, {"measurement": "rm", "setting": "[2]; DPS2 10 µg.mL^-1, mean ± SD", "result": "0,13 ± 0,03^b femelles.femelles^-1.jours^-1"}, {"measurement": "rm", "setting": "[2]; DPS2 50 µg.mL^-1, mean ± SD", "result": "0,09 ± 0,03^c femelles.femelles^-1.jours^-1"}, {"measurement": "rm", "setting": "[2]; DPS2 100 µg.mL^-1, mean ± SD", "result": "0,08 ± 0,03^c femelles.femelles^-1.jours^-1"}, {"measurement": "processus de mue", "setting": "[3]; DPS2 between 50 and 100 µg.mL^-1, many aphids die before leaving the old cuticle", "result": "affectés"}, {"measurement": "taux intrinsèque d'accroissement des populations (rm)", "setting": "[3]; both aphid species, including the lowest concentration of 1 µg.mL^-1", "result": "réduite"}, {"measurement": "concentration dès laquelle les effets aphicides maximum sont obtenus", "setting": "[3]; whatever parameter and aphid species, effects similar at 50 and 100 µg.mL^-1", "result": 50, "unit": "µg/mL"}]}]}
